The assay has as its system N-terminally deleted tomato dNK enzyme (TOM-ΔNdCK/dGK). The assay can be described thus: Deoxyribonucleoside kinase activity in extract of KY895 transformed with pGEX-2T-TOM-ΔNdCK/dGK. The class given is biochemical, Lycopersicum esculentum. The note with it: pGEX-2T-TOM-ΔNdCK/dGK. As to the method:
The E. coli strain KY895 (F^−, tdk-1, ilv) [Knecht W, Munch-Petersen B and Piskur J: Identification of residues involved in the specificity and regulation of the highly efficient multisubstrate deoxyribonucleoside kinase from Drosophila melanogaster; J. Mol. Biol. 2000 301 827-837] was transformed by various expression plasmids using standard techniques. Transformed KY895 strains were grown to an OD600 nm of 0.5-0.6 in LB/Ampicillin (100 μg/ml) medium at 37° C., and protein expression was induced by addition of 100 μM IPTG. The cells were further grown for 4 hours at 25° C. and subsequently harvested by centrifugation.
Pellets were stored at −80° C. until activity testing. Pellets were submitted to brief sonification in extraction buffer (50 mM Tris/HCl pH 7.5, 1 mM DTT, 10% (v/v) glycerol, 1% (v/v) Triton X-100, protease inhibitor cocktail (Complete™ from Roche Diagnostics).
Deoxyribonucleoside kinase activities were determined in the KY895 extracts by initial velocity measurements based on four time samples by the DE-81 filter paper assay using tritium-labelled nucleoside substrates. 4 to 20 μg extracts were used in the assays. The assay was done as described by Munch-Petersen et al. [Munch-Petersen, B., Knecht, W, Lenz, C., Sondergaard, L. & Piskur, J: Functional expression of a multisubstrate deoxyribonucleoside kinase from Drosophila melanogaster and its C-terminal deletion mutants; J. Biol. Chem. 2000 275 6673-6679].
The protein concentration was determined according to Bradford with BSA as standard protein [Bradford M M: A rapid and sensitive method for the quantitation of microgram quantities of protein utilizing the principle of protein-dye binding; Anal. Biochem. 1976 72 248-254]. SDS-PAGE was done according to the procedure of Laemmli [Laemmli U K: Cleavage of structural proteins during the assembly of the head of bacteriophage T4; Nature 1970 227 680-685], and proteins were visualized by Coomassie staining to verify recombinant protein expression.
The four natural deoxyribonucleosides were tested at a fixed concentration of 100 μM. The highest specific activity in each extract was set to 100%.

Structures are written as SMILES.

On to `Nc1ncnc2c1ncn2[C@H]1C[C@H](O)[C@@H](CO)O1` [dAdo, deoxyadenosine], for which the “ability to phosphorylate the deoxyribonucleoside (in words)” value is listed as “able to phosphorylate”.
The same measure for `Nc1ccn([C@H]2C[C@H](O)[C@@H](CO)O2)c(=O)n1` [dCyd, deoxycytidine]: “able to phosphorylate”.

These data come from patent publication US7666639B2, “Plant deoxyribonucleoside kinase enzymes and their use” (priority 2002, dated 2010).
